The test system of assay [1] is MiaPaca human pancreatic carcinoma cells. The experiment in a line: Alamar Blue cell proliferation assay, MiaPaCa. Type of assay: cell-based. The following applies: MIA PaCa-2. The procedure: (§1) A representative cell-proliferation assay protocol using Alamar Blue dye (stored at 4° C., use 20 ul per well) is described hereafter.
(§2) a. Split and trypsinize cells.
(§3) b. Count cells using hemocytometer.
(§4) c. Plate 4,000-5,000 cells per well in 100 μl of medium and seed into a 96-well plate according to the following plate layout. Add cell culture medium only to wells B10 to B12. Wells B1 to B9 have cells but no compound added.
(§5) d. Add 100 μl of 2× drug dilution to each well in a concentration shown in the plate layout above. At the same time, add 100 μl of media into the control wells (wells B10 to B12). Total volume is 200 μl/well.
(§6) e. Incubate four (4) days at 37° C., 5% CO2 in a humidified incubator.
(§7) f. Add 20 μl Alamar Blue reagent to each well.
(§8) g. Incubate for four (4) hours at 37° C., 5% CO2 in a humidified incubator.
(§9) h. Record fluorescence at an excitation wavelength of 544 nm and emission wavelength of 590 nm using a microplate reader.
(§10) In the assays, cells are cultured with a test compound for approximately four days, the dye is then added to the cells and fluorescence of […] dye is detected after approximately four hours. Different types of cells can be utilized in the assays (e.g., HCT-116 human colorectal carcinoma cells, PC-3 human prostatic cancer cells, MDA-MB231 human breast cancer cells, K-562 human chronic myelogenous leukemia (CML) cells, MiaPaca human pancreatic carcinoma cells, MV-4 human acute myeloid leukemia cells, and BxPC3 human pancreatic adenocarcinoma cells).

The test system of assay [2] is K-562 human chronic myelogenous leukemia (CML) cells. The experiment in a line: Alamar Blue cell proliferation assay, K-562. The following applies: K562, Table 4. Type of assay: cell-based. The procedure: as §1, §2, §3, §4, §5, §6, §7, §8, §9, §10
On the technique in general: Resazurin is reduced to fluorescent resorufin, in cell work by metabolically active cells.

Assay [3] concerns PC-3 human prostatic cancer cells. Nature of the assay: Alamar Blue cell proliferation assay, PC3. Format: cell-based. The procedure:
as §1, §2, §3, §4, §5, §6, §7, §8, §9, §10

The target in another assay is recombinant PIM-1 (Homo sapiens, UniProt P11309). Nature of the assay: PIM-1 kinase assay. The following applies: for inhibition at 0.5 µM: 500 nM compound, read-out: PIM1: % inh 500 nM. Type of assay: biochemical. The procedure:
The following procedure was used to assay the PIM-1 kinase activity of compounds of the invention. Other methods for assaying PIM-1 and other PIM kinases, as well as methods to assay for activity against various kinases known in the art.
In a final reaction volume of 50 ul, recombinant PIM-1 (1 ng) was incubated with 12 mM MOPS pH 7.0, 0.4 mM EDTA, glycerol 1%, brij 35 0.002%, 2-mercaptoethanol 0.02%, BSA 0.2 mg/ml, 100 uM KKRNRTLTK, 10 mM MgAcetate, 15 uM ATP, [γ-^33P-ATP] (specific activity approx. 500 cpm/pmol), DMSO 4% and test inhibitor compound at the required concentration. The reaction was initiated by the addition of the Magnesium ATP mixture. After 40 min incubation at 23° C., the reactions were quenched by the addition of 100 ul 0.75% Phosphoric acid, and the labeled peptide collected by filtration through a phosphocellulose filter plate. The plate was washed 4 times with 0.075% phosphoric acid (100 ul per well) and then, after the addition of scintillation fluid (20 ul per well), the counts were measured by a scintillation counter.

For the next assay, the system named is MV-4-11. Nature of the assay: Alamar Blue cell proliferation assay, MV-4-11. The following applies: Homo sapiens, MV4-11; Table 4. Type of assay: cell-based. The procedure:
as §1, §2, §3, §4, §5, §6, §7, §8, §9, §10

The target of a further assay is recombinant human PIM2 (Homo sapiens, UniProt Q9P1W9). Nature of the assay: PIM-2 kinase assay. Type of assay: biochemical. The procedure:
Test compounds dissolved and diluted in DMSO (2 μl) were added to a reaction mixture comprising 10 μl of 5× Reaction Buffer (40 mM MOPS pH 7.0, 5 mM EDTA), 10 μl of recombinant human PIM2 solution (4 ng PIM-2 dissolved in dilution buffer (20 mM MOPS pH 7.0; EDTA 1 mM; 5% Glycerol; 0.01% Brij 35; […]; […] 2-mercaptoethanol; 1 mg/ml BSA)) and 8 ul of water. Reactions were initiated by the addition of 10 ul of ATP Solution ([…] (15 mM MgCl2; 75 uM ATP) 1% ([γ-33P]ATP: Stock 1 mCi/100 μl; 3000 Ci/mmol (Perkin Elmer)) and 10 ul of substrate peptide solution (RSRSSYPAGT, dissolved in water at a concentration of 1 mM), Reactions were maintained for 10 min at 30° C. The reactions were quenched with 100 ul of 0.75% Phosphoric acid, then transferred to and filtered through a Phosphocellulose filter plate (Millipore, MSPH-N6B-50). After washing each well 4 times with 0.75% Phosphoric acid, scintillation fluid (20 uL) was added to each well and the residual radioactivity was measured using a Wallac luminescence counter.

The target in another assay is T1, recombinant human CK2 (Homo sapiens, UniProt P68400).
T1 construct: purchased Upstate
T1 sequence (P68400 whole entry): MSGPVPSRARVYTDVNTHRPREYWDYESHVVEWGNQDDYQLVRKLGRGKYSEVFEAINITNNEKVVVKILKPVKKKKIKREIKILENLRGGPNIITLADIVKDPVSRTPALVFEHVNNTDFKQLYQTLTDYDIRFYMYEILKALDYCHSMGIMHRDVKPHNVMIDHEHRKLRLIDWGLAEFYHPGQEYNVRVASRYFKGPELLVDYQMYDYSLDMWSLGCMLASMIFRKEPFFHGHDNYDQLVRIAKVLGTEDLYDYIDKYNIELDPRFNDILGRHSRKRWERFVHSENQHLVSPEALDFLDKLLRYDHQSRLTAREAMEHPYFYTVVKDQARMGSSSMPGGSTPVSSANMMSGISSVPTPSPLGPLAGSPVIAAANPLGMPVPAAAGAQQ
T1 sequence (P67870 whole entry partner): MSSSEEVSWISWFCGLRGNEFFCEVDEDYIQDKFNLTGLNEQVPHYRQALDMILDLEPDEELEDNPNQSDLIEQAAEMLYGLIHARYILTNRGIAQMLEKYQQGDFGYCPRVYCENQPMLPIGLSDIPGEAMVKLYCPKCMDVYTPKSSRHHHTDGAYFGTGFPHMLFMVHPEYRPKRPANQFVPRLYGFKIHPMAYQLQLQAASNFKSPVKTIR
The experiment in a line: cell-free CK2 assay. Type of assay: biochemical. The protocol:
Modulatory activity of compounds described herein was assessed in vitro in cell-free CK2 assays by the following method.
Test compounds in aqueous solution were added at a volume of 10 microliters, to a reaction mixture comprising 10 microliters Assay Dilution Buffer (ADB; 20 mM MOPS, pH 7.2, 25 mM beta-glycerolphosphate, 5 mM EGTA, 1 mM sodium orthovanadate and 1 mM dithiothreitol), 10 microliters of substrate peptide (RRRDDDSDDD, dissolved in ADB at a concentration of 1 mM), 10 microliters of recombinant human CK2 (25 ng dissolved in ADB; Upstate). Reactions were initiated by the addition of 10 microliters of ATP Solution (90% 75 mM MgCl2, 75 micromolar ATP dissolved in ADB; 10% [γ-^33P]ATP (stock 1 mCi/100 μl; 3000 Ci/mmol (Perkin Elmer) and maintained for 10 minutes at 30 degrees C. The reactions were quenched with 100 microliters of 0.75% phosphoric acid, then transferred to and filtered through a phosphocellulose filter plate (Millipore). After washing each well 5 times with 0.75% phosphoric acid, the plate was dried under vacuum for 5 min and, following the addition of 15 ul of scintilation fluid to each well, the residual radioactivity was measured using a Wallac luminescence counter.

[4] abbreviates: 15 μM ATP, read-out: PIM1: IC50 (15 μM ATP).

Each structure is given as a SMILES string. Where two headings read alike, the source gives them in different places.

Sequence of recombinant human PIM2 (Q9P1W9 whole entry): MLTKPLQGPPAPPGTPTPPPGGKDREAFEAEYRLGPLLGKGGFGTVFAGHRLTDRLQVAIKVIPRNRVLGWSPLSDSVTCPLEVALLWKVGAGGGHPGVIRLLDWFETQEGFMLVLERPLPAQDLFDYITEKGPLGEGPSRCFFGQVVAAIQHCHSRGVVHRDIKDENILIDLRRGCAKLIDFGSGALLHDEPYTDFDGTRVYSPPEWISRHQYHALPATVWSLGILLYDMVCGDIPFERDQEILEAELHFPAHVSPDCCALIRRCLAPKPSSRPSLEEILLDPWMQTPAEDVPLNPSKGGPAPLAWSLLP
Sequence of recombinant PIM-1 (P11309 whole entry): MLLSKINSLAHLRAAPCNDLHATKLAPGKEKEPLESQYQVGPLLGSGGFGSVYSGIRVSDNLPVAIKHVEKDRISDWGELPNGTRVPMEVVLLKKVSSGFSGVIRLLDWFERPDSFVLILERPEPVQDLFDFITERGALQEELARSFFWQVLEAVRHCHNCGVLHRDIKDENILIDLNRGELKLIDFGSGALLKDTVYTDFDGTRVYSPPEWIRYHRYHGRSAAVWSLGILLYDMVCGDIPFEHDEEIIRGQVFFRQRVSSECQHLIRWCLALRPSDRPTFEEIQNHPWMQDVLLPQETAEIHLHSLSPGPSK

On to `Cc1ccccc1Nc1nc2cc(-c3nnn[nH]3)ccc2n2cccc12`, for which the half-inhibitory concentration (IC50) (as a rule, the concentration at which inhibition is half-maximal) was over 10 µM in assay [1]; over 10 µM in assay [2]; over 10 µM in assay [3]; 0.676 µM at recombinant PIM-1 (setting [4]); over 10 µM in the assay with MV-4-11. Further, the inhibition at 0.5 µM at recombinant PIM-1 worked out at 52.4%.

On to `Clc1cccc(-c2nc3cc(-c4nnn[nH]4)ccc3n3cccc23)c1`, for which the half-maximal inhibitory concentration (IC50) (in assay [1]; in assay [2]; in assay [3]; in the assay with MV-4-11) was over 10 µM in each case. The inhibition at 0.5 µM at recombinant PIM-1 worked out at 25%.

With `N#Cc1cccc(Nc2nc3cc(C(=O)O)ccc3n3cccc23)c1`, the 50% inhibitory concentration (IC50) in assay [1] was over 10 µM; in assay [2], over 10 µM; in assay [3] it was over 10 µM; at recombinant PIM-1 (setting [4]) it was 0.115 µM; in the assay on MV-4-11 it was over 10 µM. Further, the inhibition at 0.5 µM on recombinant PIM-1 stood at 92.3%.

Consider `O=C(O)c1ccc2c(c1)nc(Nc1cc(F)cc(Cl)c1)c1cccn12`, for which the concentration for half-maximal inhibition (IC50) in assay [1] was over 10 µM; in assay [2] it was over 10 µM; in assay [3], over 10 µM; at recombinant PIM-1 (setting [4]), 0.119 µM; with MV-4-11 it was 8.55 µM. Also, the inhibition at 0.5 µM at recombinant PIM-1 was found to be 83.9%.

For the compound `CN(C)CCNc1nc2cc(C#N)ccc2n2cccc12`, the 50% inhibitory concentration (IC50) in assay [1] was 1.29 µM; in assay [2], 5.24 µM; in assay [3], 8.31 µM; in the assay with MV-4-11, 2.73 µM. In addition, at recombinant PIM-1, the inhibition at 0.5 µM was found to be 20.1%.

Turning to `Fc1ccc(Nc2nc3c(-c4nnc[nH]4)cccc3n3cccc23)c(Cl)c1`, the IC50 was under 0.1 µM on recombinant human PIM2; under 0.1 µM on recombinant PIM-1 (Table 5, read-out: PIM1 IC50); under 1 µM on recombinant human CK2.

Regarding `O=c1[nH]c2c(-c3nnc[nH]3)cccc2n2cccc12`, the 50% inhibitory concentration (IC50) at recombinant human PIM2 is over 2.5 µM; at recombinant PIM-1 (Table 5, read-out: PIM1 IC50), over 2.5 µM; on recombinant human CK2, under 5 µM.

For `CN(c1cccc(Cl)c1)c1nc2cc(C(=O)O)ccc2n2cccc12`, the IC50 (in assay [1]; in assay [2]; in assay [3]; in the assay on MV-4-11) was over 10 µM each time. Further, the inhibition at 0.5 µM at recombinant PIM-1 was 49.7%.

On to `c1cc(-c2nnc[nH]2)c2nc(Nc3nccs3)c3cccn3c2c1`, for which the IC50 at recombinant human PIM2 is under 5 µM; at recombinant PIM-1 (Table 5, read-out: PIM1 IC50), under 5 µM; at recombinant human CK2, under 5 µM.

Consider `NC(=O)c1cc(F)cc(Nc2nc3cc(C(=O)O)ccc3n3cccc23)c1`, for which the half-inhibitory concentration (IC50) in assay [1] is over 10 µM; in assay [2] it was over 10 µM; on recombinant PIM-1 (setting [4]), 0.229 µM; in the assay on MV-4-11 it was over 10 µM. Also, the inhibition at 0.5 µM on recombinant PIM-1 came to 69.3%.

Regarding `CCOC(=O)c1cccc2c1[nH]c(=O)c1cccn12`, the 50% inhibitory concentration (IC50) is over 2.5 µM at recombinant human PIM2; over 2.5 µM on recombinant PIM-1 (Table 5, read-out: PIM1 IC50); over 5 µM at recombinant human CK2.

With `Fc1cc(F)cc(Nc2nc3cc(-c4nnn[nH]4)ccc3n3cccc23)c1`, the IC50 in assay [1] is over 10 µM; in assay [2], over 10 µM; in assay [3], over 10 µM; on recombinant PIM-1 (setting [4]) it was 0.514 µM; in the assay with MV-4-11 it was 7.77 µM. The inhibition at 0.5 µM on recombinant PIM-1 stood at 63.8%.

For `O=C(O)c1ccc2c(c1)nc(Nc1cccc(F)c1)c1cccn12`, the 50% inhibitory concentration (IC50) in assay [1] was over 10 µM; in assay [2], over 10 µM; in assay [3], over 10 µM; on recombinant PIM-1 (setting [4]) it was 0.156 µM; with MV-4-11, over 10 µM. Moreover, the inhibition at 0.5 µM at recombinant PIM-1 was 78.1%.

Source of the values: patent US20100298302A1, “NOVEL PROTEIN KINASE MODULATORS” (priority 2009, published 2010).
